Laboratory results as given in ChEMBL document CHEMBL1133570, “Synthesis and in vitro and in vivo activity of (-)-(1R,5R,9R)- and (+)-(1S,5S,9S)-N-alkenyl-, -N-alkynyl-, and -N-cyanoalkyl-5, 9-dimethyl-2'-hydroxy-6,7-benzomorphan homologues” (J Med Chem, 2000).
Calls of active or inactive are those of the source. Unless noted, the calls are words filed in the database; no cut-off is given here.

What was measured:
[1] = biological target: Mu-type opioid receptor (Mus musculus, UniProt P42866); assay: (§1) Ki value determined against Opioid receptor mu 1 using [3H]DAMGO at the Kd concentration 0.57 nM
Mu-type opioid receptor, sequence (P42866 whole entry): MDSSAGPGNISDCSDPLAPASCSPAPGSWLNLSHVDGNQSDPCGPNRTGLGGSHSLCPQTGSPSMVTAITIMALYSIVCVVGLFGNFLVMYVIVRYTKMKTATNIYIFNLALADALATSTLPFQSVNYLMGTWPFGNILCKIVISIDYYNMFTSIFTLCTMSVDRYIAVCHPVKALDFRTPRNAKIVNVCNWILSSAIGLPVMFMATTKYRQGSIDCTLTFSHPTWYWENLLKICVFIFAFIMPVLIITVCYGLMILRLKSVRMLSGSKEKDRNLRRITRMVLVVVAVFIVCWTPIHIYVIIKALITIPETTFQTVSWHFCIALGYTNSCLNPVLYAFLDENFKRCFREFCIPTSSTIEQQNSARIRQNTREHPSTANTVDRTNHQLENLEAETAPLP

[2] = biological target: T1, Opioid receptor (Mus musculus) (UniProt P42866+P32300+P33534); assay: Using the PPQ (paraphenylquinone) assay selective opioid receptor agonist activity was established in mice; type: functional
T1 sequence (P32300 whole entry, looked up): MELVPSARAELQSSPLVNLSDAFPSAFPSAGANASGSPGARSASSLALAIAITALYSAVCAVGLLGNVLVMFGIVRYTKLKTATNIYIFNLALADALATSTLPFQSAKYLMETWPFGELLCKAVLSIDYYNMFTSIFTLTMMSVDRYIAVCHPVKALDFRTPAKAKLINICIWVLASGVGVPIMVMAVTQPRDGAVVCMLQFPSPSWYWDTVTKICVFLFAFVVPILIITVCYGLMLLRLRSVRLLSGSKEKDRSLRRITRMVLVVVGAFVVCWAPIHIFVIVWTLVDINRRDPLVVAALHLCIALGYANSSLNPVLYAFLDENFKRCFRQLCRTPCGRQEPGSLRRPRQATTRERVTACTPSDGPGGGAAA
T1 sequence (P33534 whole entry, looked up): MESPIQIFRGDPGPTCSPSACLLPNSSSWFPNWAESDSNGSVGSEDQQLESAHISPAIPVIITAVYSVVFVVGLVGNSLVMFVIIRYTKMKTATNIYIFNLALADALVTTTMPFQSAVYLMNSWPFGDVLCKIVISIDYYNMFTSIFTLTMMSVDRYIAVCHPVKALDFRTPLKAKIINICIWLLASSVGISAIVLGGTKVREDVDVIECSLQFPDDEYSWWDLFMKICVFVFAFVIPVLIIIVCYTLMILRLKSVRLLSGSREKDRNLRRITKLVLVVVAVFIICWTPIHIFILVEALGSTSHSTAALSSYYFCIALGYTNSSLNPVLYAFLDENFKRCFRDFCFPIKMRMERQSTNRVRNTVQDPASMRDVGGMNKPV
T1 sequence (P42866 whole entry, looked up): as the sequence (P42866 whole entry) above

[3] = biological target: Sigma non-opioid intracellular receptor 1 (Mus musculus, UniProt O55242); assay: Ki value determined against Sigma opioid receptor type 1 using [(+)-[3H]pentazocine at the Kd concentration 2nM
Sigma non-opioid intracellular receptor 1 (Mus musculus, UniProt O55242), sequence (O55242 whole entry): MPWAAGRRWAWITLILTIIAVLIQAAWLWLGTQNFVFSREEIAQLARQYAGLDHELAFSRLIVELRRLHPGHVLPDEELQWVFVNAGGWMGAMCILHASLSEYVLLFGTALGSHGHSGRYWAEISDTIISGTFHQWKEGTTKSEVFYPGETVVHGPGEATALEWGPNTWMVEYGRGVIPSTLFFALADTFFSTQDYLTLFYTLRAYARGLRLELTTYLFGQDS

[4] = biological target: Delta-type opioid receptor (Mus musculus, UniProt P32300); assay: Ki value determined against Opioid receptor delta 1 using [3H]DPDPE at the Kd concentration 2.1 nM
Delta-type opioid receptor, sequence (P32300 whole entry): as the sequence (P32300 whole entry, looked up) above

[5] = (§2) Tail-flick vs. morphine ED80(morphine sulfate substituted completely) was studied to determine selective in vivo agonist and antagonist activity.; type: functional
[6] = biological target: Kappa-type opioid receptor (Mus musculus, UniProt P33534); assay: (§3) Ki value determined against Opioid receptor kappa 1 using [3H]U69, 593 at the Kd concentration 0.95 nM
Kappa-type opioid receptor, sequence (P33534 whole entry): as the sequence (P33534 whole entry, looked up) above

[7] = biological target: Sigma 2 receptor; assay: Ki value determined against Sigma opioid receptor type 2 using [3H]DTG (5 nM) with 1 uM dextrallorphan to mask sigma-1 binding; parameters: species or system Mus musculus
[8] = biological target: T1, Opioid receptor (Mus musculus); assay: Hot plate test was carried out for mouse injected sc and the antinociceptive activity was determined from the response;IA, Inactive less than 70% of mice affected at 30 mg/kg.; type: functional, organism-based; parameters: dose 30 mg/kg
[9] = biological target: T1, Opioid receptor (Mus musculus); assay: Evaluated in vivo for the antinociceptive and opioid antagonist assays in ICR male mice, Tail-Flick agonist and antagonist tests was performed; IA, Inactive less than 70% of mice affected at 30 mg/kg.; type: functional, organism-based; parameters: dose 30 mg/kg
[10] = biological target: T1, Opioid receptor (Mus musculus)
Description: Antinociceptive activity was determined in vivo in all opioid type tests, expressed as AD50 administered subcutaneously

[11] = biological target: Mu-type opioid receptor (Mus musculus) (UniProt P42866); assay: as §1
Mu-type opioid receptor (Mus musculus), sequence (P42866 whole entry): as the sequence (P42866 whole entry) above

[12] = biological target: Sigma non-opioid intracellular receptor 1 (Rattus norvegicus, UniProt Q9R0C9); assay: Ki value determined against Sigma opioid receptor type 1 using [(+)-[3H]pentazocine at the Kd concentration 2 nM.
Sigma non-opioid intracellular receptor 1 (Rattus norvegicus, UniProt Q9R0C9), sequence (Q9R0C9 whole entry): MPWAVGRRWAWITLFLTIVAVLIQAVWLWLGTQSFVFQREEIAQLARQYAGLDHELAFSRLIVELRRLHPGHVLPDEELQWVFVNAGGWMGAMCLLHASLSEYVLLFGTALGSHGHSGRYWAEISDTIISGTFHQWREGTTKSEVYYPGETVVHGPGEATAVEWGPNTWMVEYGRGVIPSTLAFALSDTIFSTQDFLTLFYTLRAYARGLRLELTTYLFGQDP

[13] = biological target: Kappa-type opioid receptor (Mus musculus) (UniProt P33534); assay: as §3
Kappa-type opioid receptor (Mus musculus), sequence (P33534 whole entry): as the sequence (P33534 whole entry, looked up) above

[14] = biological target: T1, Opioid receptor (Mus musculus); conditions: Tail
Description: (§5) Narcotic antagonist activity in the mouse tail-flick versus morphine assay

[15] = biological target: T1, Opioid receptor (Mus musculus); assay: Evaluated in vivo for the antinociceptive and opioid antagonist assays in ICR male mice, Tail-Flick agonist and antagonist tests was performed; type: functional, organism-based
[16] = biological target: T1, Opioid receptor (Mus musculus); assay: Hot plate test was carried out for mouse injected sc and the antinociceptive activity was determined from the response; type: functional, organism-based
[17] = (§4) Tail-flick vs. morphine ED80(morphine sulfate substituted completely) was studied to determine selective in vivo agonist and antagonist activity.;IA, Inactive less than 70% of mice affected at 30 mg/kg.; type: functional, organism-based; parameters: dose 30 mg/kg
[18] = biological target: T1, Opioid receptor (Mus musculus); conditions: Tail; remark: listed apart in the source
Description: as §5

[19] = biological target: Delta-type opioid receptor (Homo sapiens) (UniProt P41143); assay: Antinociceptive activity was determined at Opioid receptor delta 1 versus ED80 of morphine; type: functional
Delta-type opioid receptor (Homo sapiens), sequence (P41143 whole entry): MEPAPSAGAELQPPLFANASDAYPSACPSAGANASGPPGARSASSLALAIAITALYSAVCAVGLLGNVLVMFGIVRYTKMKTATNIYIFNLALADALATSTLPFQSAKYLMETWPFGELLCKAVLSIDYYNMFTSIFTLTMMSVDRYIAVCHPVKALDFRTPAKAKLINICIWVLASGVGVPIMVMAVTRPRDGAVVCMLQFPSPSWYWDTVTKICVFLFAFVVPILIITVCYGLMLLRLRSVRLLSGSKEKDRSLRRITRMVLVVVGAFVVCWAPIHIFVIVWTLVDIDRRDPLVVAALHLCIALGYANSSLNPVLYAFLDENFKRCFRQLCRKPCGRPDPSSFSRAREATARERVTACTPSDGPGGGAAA

[20] = biological target: Delta-type opioid receptor (Homo sapiens) (UniProt P41143); assay: Antinociceptive activity was determined at Opioid receptor delta 1 using DPDPE; type: functional
[21] = biological target: Delta-type opioid receptor (Homo sapiens) (UniProt P41143); assay: Antinociceptive activity was determined at Opioid receptor delta 1 versus ED80 of U69,593; type: functional
[22] = biological target: T1, Opioid receptor (Mus musculus); assay: as §2; type: functional, organism-based
[23] = biological target: Sigma 2 receptor; assay: Ki value determined against Sigma opioid receptor type 2 using [3H]DTG(5nM) with 1 uM dextrallorphan to mask sigma1 binding; parameters: species or system Mus musculus
[24] = system: Mus musculus; assay: as §4; type: functional, organism-based; parameters: dose 30 mg/kg
[25] = biological target: T1, Opioid receptor (Mus musculus); assay: Antinociceptive activity was determined in vivo in all opioid type tests; type: organism-based
[26] = biological target: T1, Opioid receptor (Mus musculus); assay: Using the PPQ (paraphenylquinone) assay selective opioid receptor agonist activity was established in mice;IA, Inactive less than 70% of mice affected at 30 mg/kg.; type: functional, organism-based; parameters: dose 30 mg/kg

Row | SMILES | Ki [1] [nM] | ED50 [2] [mg/kg] | Ki [3] [nM] | Ki [4] [nM] | Ki [6] [nM] | Ki [7] [nM] | Ki [12] [nM] | further results
1 | C=CCN1CC[C@]2(C)c3cc(O)ccc3CC1[C@@H]2C | 0.9 | 0.1 | 11000 | 5.5 | 0.3 | 3200 |  | ED50 [5]: 0.2 mg/kg; ED50 [8]: inactive; ED50 [9]: inactive
2 | Oc1ccc2c3c1O[C@H]1c4[nH]c5ccccc5c4C[C@@]4(O)[C@@H](C2)N(CC2CC2)CC[C@]314 |  |  |  |  |  |  |  | AD50 [10]: 3.1 mg/kg
3 | Oc1ccc2c3c1O[C@H]1c4[nH]c5c(c4C[C@@]4(O)[C@@H](C2)N(CC2CC2)CC[C@]314)C[C@@]1(O)[C@H]2Cc3ccc(O)c4c3[C@@]1(CCN2CC1CC1)[C@H]5O4 |  |  |  |  |  |  |  | AD50 [10]: 0.3 mg/kg
4 | C=CCCCN1CC[C@]2(C)c3cc(O)ccc3CC1[C@@H]2C | 15 | 1.4 | 50 | 60 | 5.9 | 180 |  | ED50 [5]: 6 mg/kg; ED50 [8]: inactive; ED50 [9]: inactive
5 | CC#CCN1CC[C@]2(C)c3cc(O)ccc3CC1[C@@H]2C (stereo in doubt; 12) [listing 1 of 2 here] | 0.5 |  | 9800 | 60 | 3.9 | 4400 |  | ED50 [5]: 0.3 mg/kg
6 | CC1C2Cc3ccc(O)cc3[C@@]1(C)CCN2CCCC#N (stereo partly drawn) |  |  |  |  | 240 |  | 20 | inhibition [11]: 9%
7 | CC1C2Cc3ccc(O)cc3[C@@]1(C)CCN2CCCCC#N (stereo partly drawn) | 4800 |  |  |  | 1300 |  | 36 | 
8 | CC1C2Cc3ccc(O)cc3[C@@]1(C)CCN2CCCCCC#N (stereo partly drawn) |  |  |  |  | 500 |  | 33 | inhibition [11]: 12.4%
9 | CC1C2Cc3ccc(O)cc3[C@@]1(C)CCN2CCCCCCC#N (stereo partly drawn) |  |  |  |  |  |  | 16 | inhibition [13]: 17.7%; inhibition [11]: 37%
10 | CC1C2Cc3ccc(O)cc3[C@@]1(C)CCN2CC#N (stereo partly drawn) |  |  |  |  |  |  | 11000 | inhibition [13]: 20.4%; inhibition [11]: 18.6%
11 | C=CCN1CC[C@]2(C)c3cc(O)ccc3CC1C2C (stereo partly drawn) |  |  |  |  |  |  | 300 | inhibition [13]: 31%; inhibition [11]: 28.5%; AD50 [14]: 13.2 mg/kg
12 | C=CCCCCN1CC[C@]2(C)c3cc(O)ccc3CC1[C@@H]2C | 10 | 0.8 | 22 | 56 | 5.8 | 80 |  | ED50 [15]: 0.3 mg/kg; ED50 [16]: 0.6 mg/kg; ED50 [17]: inactive
13 | C[C@H]1C2Cc3ccc(O)cc3[C@@]1(C)CCN2CC#N | 100 | 1.5 | 13000 | 590 | 70 | 19000 |  | ED50 [15]: 12 mg/kg; ED50 [16]: 9 mg/kg
14 | CC#CCN1CC[C@]2(C)c3cc(O)ccc3CC1[C@@H]2C (stereo in doubt; 26) [listing 1 of 2 here] |  |  |  |  |  |  |  | AD50 [18]: 6.7 mg/kg
15 | CC#CCN1CC[C@]2(C)c3cc(O)ccc3CC1[C@@H]2C (stereo in doubt; 12) [listing 2 of 2 here] |  | 0.1 |  |  |  |  |  | ED50 [8]: inactive; ED50 [9]: inactive
16 | C#CCCCN1CC[C@]2(C)c3cc(O)ccc3CC1[C@@H]2C | 18 | 12 | 200 | 140 | 11 | 440 |  | AD50 [19]: 20 mg/kg; ED50 [5]: 2 mg/kg; AD50 [20]: 0.05 mg/kg; AD50 [21]: 1.2 mg/kg; ED50 [8]: inactive; ED50 [9]: inactive

Row | SMILES | Ki [1] [nM] | ED50 [2] [mg/kg] | Ki [3] [nM] | Ki [4] [nM] | Ki [6] [nM] | Ki [7] [nM] | Ki [12] [nM] | further results
17 | C=CCCN1CC[C@]2(C)c3cc(O)ccc3CC1[C@@H]2C | 2.1 | 0.3 | 1600 | 21 | 1.3 | 620 |  | ED50 [22]: 4 mg/kg; ED50 [15]: 0.05 mg/kg; ED50 [16]: 0.8 mg/kg
18 | C=CCCN1CC[C@]2(C)c3cc(O)ccc3CC1C2C (stereo partly drawn) |  |  |  |  |  |  | 15 | inhibition [13]: 35.5%; inhibition [11]: 41%
19 | CC1C2Cc3ccc(O)cc3[C@@]1(C)CCN2CCC#N (stereo partly drawn) |  |  |  |  | 600 |  | 250 | inhibition [11]: 11.6%
20 | C#CCCN1CC[C@]2(C)c3cc(O)ccc3CC1C2C (stereo partly drawn) |  |  |  |  |  |  | 110 | 
21 | C[C@H]1C2Cc3ccc(O)cc3[C@@]1(C)CCN2CCCCC#N | 18 | 3 | 490 | 160 | 6.9 | 2800 |  | ED50 [15]: 15 mg/kg
22 | CC#CCN1CC[C@]2(C)c3cc(O)ccc3CC1[C@@H]2C (stereo in doubt; 26) [listing 2 of 2 here] |  |  | 160 |  |  |  |  | Ki [23]: 12000 nM
23 | C=CCCCN1CC[C@]2(C)c3cc(O)ccc3CC1C2C (stereo partly drawn) |  |  |  |  | 400 |  | 2.1 | inhibition [11]: 20.5%
24 | C[C@H]1C2Cc3ccc(O)cc3[C@@]1(C)CCN2CCC#N | 4.2 | 0.05 | 9800 | 9.8 | 0.4 | 51000 |  | ED50 [15]: 0.3 mg/kg; ED50 [16]: 0.1 mg/kg
25 | C[C@H]1C2Cc3ccc(O)cc3[C@@]1(C)CCN2CCCCCCC#N | 90 | 9 | 80 | 350 | 38 | 150 |  | ED50 [24]: inactive; ED50 [8]: inactive; ED50 [9]: inactive
26 | C[C@H]1C2Cc3ccc(O)cc3[C@@]1(C)CCN2CCCC#N | 5.8 | 0.01 | 1700 | 23 | 0.4 | 8400 |  | ED50 [15]: 0.4 mg/kg; ED50 [16]: 1 mg/kg
27 | COC(=O)/C=C/C(=O)N[C@@H]1CC[C@@]2(O)[C@H]3Cc4ccc(O)c5c4[C@@]2(CCN3CC2CC2)[C@H]1O5 |  |  |  |  |  |  |  | AD50 [25]: 0.6 µg brain-1
28 | C=CCCCCN1CC[C@]2(C)c3cc(O)ccc3CC1C2C (stereo partly drawn) | 980 |  |  |  |  |  | 1.1 | 
29 | C#CCCCN1CC[C@]2(C)c3cc(O)ccc3CC1C2C (stereo partly drawn) |  |  |  |  |  |  | 18 | 
30 | C[C@H]1C2Cc3ccc(O)cc3[C@@]1(C)CCN2CCCCCC#N | 15 |  | 640 | 220 | 11 | 380 |  | ED50 [22]: 10 mg/kg; ED50 [26]: inactive; ED50 [8]: inactive; ED50 [9]: inactive
31 | C#CCCN1CC[C@]2(C)c3cc(O)ccc3CC1[C@@H]2C | 4.6 | 0.04 | 5900 | 10 | 1.4 | 2200 |  | ED50 [15]: 0.05 mg/kg; ED50 [16]: 0.1 mg/kg; ED50 [17]: inactive
